In brackets after ≈: the same amount, converted by molar mass.
Key:
Assay in all cases: In vitro antimicrobial activity (M.I.C.)
Type in all cases: cell-based
[1] = tested on: Candida albicans ATCC 10231; conditions: ATCC10231, average values
Procedure: (§1) The first is prepared from Krameria triandra and from Mesua ferrea. The activity, expressed in M.I.C. (minimum inhibitory concentration), was evaluated by normal terms within the art. Moreover, one of ordinary skill in the art with little or no experimentation can optimize the results for a particular antimicrobial compound or mixtures of compounds.

[2] = tested on: Trichophyton mentagrophytes 193; conditions: average values
Procedure: as §1

Escherichia coli CNUR 1 = conditions: CNUR1, average values
Procedure: as §1

Acinetobacter cal. OSMPV = conditions: average values
Procedure: as §1

Propionibacterium acnes = conditions: Cutibacterium acnes, average values
Procedure: as §1

Bacteroides fragilis = conditions: average values
Procedure: as §1

[3] = tested on: Staphilococcus aureus MPR5; conditions: average values
Procedure: as §1

[4] = tested on: Streptococcus feaecalis LEP Br; conditions: average values
Procedure: as §1

[5] = tested on: Pseudomonas aeruginosa CNUR 4; conditions: CNUR4, average values
Procedure: as §1

[6] = tested on: Staphilococcus epidermis CPHL; conditions: average values
Procedure: as §1

[7] = tested on: Staphilococcus aureus ATCC6538; conditions: average values
Procedure: as §1

Structure (SMILES)	MIC [1] [µg/mL]	MIC [2] [µg/mL]	MIC (Escherichia coli CNUR 1) [µg/mL]	MIC (Acinetobacter cal. OSMPV) [µg/mL]	MIC (Propionibacterium acnes) [µg/mL]	MIC (Bacteroides fragilis) [µg/mL]	MIC [3] [µg/mL]	MIC [4] [µg/mL]	MIC [5] [µg/mL]	MIC [6] [µg/mL]	MIC [7] [µg/mL]
Clc1ccc(COC(Cn2ccnc2)c2ccc(Cl)cc2Cl)c(Cl)c1 (centres unmarked) [miconazole]	2 (≈ 4.81 µM)	2 (≈ 4.81 µM)	–	–	–	–	–	–	–	–	–
CN1CCN(c2c(F)cc3c(=O)c(C(=O)O)cn4c3c2SCC4)CC1 [rufloxacin]	–	–	0.51 (≈ 1.4 µM)	2 (≈ 5.5 µM)	32 (≈ 88.1 µM)	32 (≈ 88.1 µM)	1 (≈ 2.75 µM)	16 (≈ 44 µM)	32 (≈ 88.1 µM)	1 (≈ 2.75 µM)	0.5 (≈ 1.38 µM)

Reference: patent US6475536B2, “Pharmaceutical and cosmetic formulations with antimicrobial activity” (Indena S.p.A., priority 1996, dated 2002)
